Measurements reported in patent publication US20180155336A1, “PROCESS FOR THE PREPARATION OF 2-{4-[2-({[2-(4-CHLOROPHENYL)-1,3-THIAZOL-4-YL]METHYL}SULFANYL)-3,5-DICYAN0-6-(PYRROLIDIN-1-YL)PYRIDIN-4-YL]PHENOXY}ETHYL-L-ALANYL-L-ALANINATE MONOHYDROCHLORIDE” (BAYER PHARMA AKTIENGESELLSCHAFT, priority 2015, published 2018).
Counter-ions that a name gives are not always drawn.

Test: Storage stability of the crystalline form
Format: physicochemical
From the text: The compound of the formula (I) is generally micronized and formulated in pharmacy.

Q: With `C[C@H](N)C(=O)N[C@@H](C)C(=O)OCCOc1ccc(-c2c(C#N)c(SCc3csc(-c4ccc(Cl)cc4)n3)nc(N3CCCC3)c2C#N)cc1` [2-{4-[2-({[2-(4-chlorophenyl)-1,3-thiazol-4-yl]methyl}sulphanyl)-3,5-dicyano-6-(pyrrolidin-1-yl)pyridin-4-yl]phenoxy}ethyl-L-alanyl L-alaninate monohydrochloride] as the molecule, how does the stability properties (even at high atmospheric humidity) read?
A: The stability properties was “very good stability properties”.

Q: What about the “can be stored without any problem” value (storage time) of the same molecule?
A: The value was over 2 years.
